Source: PubChem BioAssay AID1963429 (Molecular Pharmacology Branch, DTP, NCI, 2024)
Values belong to the compound of their own block, whether it stands above or below them.

System: 126254-015-R-J1-PDC complex spheroid growth, % test/control
Assay: Anticancer human tumor 126254-015-R-J1-PDC patient-derived soft tissue sarcoma cell line growth inhibition [Asc]
Conditions: for IC50: curve of first compound; for viability, T/C: stronger effect = lower value
Method in brief: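 Complex spheroids combining tumor cells with HUVEC endothelial cells and human MSCs, at 37 degrees C, 5% CO2; agents tested alone or combined, half-log dilutions from at or near clinical Cmax, or 10 microM if Cmax unknown.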

[1] = second compound 0.03 µM, first compound 0.0316 µM
[2] = second compound 0.03 µM, first compound 0.1 µM
[3] = second compound 0.03 µM, first compound 0.316 µM
[4] = second compound 0.03 µM, first compound 1 µM
[5] = second compound 0.0949 µM, first compound 0.0316 µM
[6] = second compound 0.0949 µM, first compound 0.1 µM
[7] = second compound 0.0949 µM, first compound 0.316 µM
[8] = second compound 0.0949 µM, first compound 1 µM
[9] = second compound 0.3 µM, first compound 0.0316 µM
[10] = second compound 0.3 µM, first compound 0.1 µM
[11] = second compound 0.3 µM, first compound 0.316 µM
[12] = second compound 0.3 µM, first compound 1 µM
[13] = second compound 0.949 µM, first compound 0.0316 µM
[14] = second compound 0.949 µM, first compound 0.1 µM
[15] = second compound 0.949 µM, first compound 0.316 µM
[16] = second compound 0.949 µM, first compound 1 µM
[17] = second compound 3 µM, first compound 0.0316 µM
[18] = second compound 3 µM, first compound 0.1 µM
[19] = second compound 3 µM, first compound 0.316 µM
[20] = second compound 3 µM, first compound 1 µM
[21] = second compound 0.03 µM, first compound 0.00316 µM
[22] = second compound 0.03 µM, first compound 0.01 µM
[23] = second compound 0.0949 µM, first compound 0.00316 µM
[24] = second compound 0.0949 µM, first compound 0.01 µM
[25] = second compound 0.3 µM, first compound 0.00316 µM
[26] = second compound 0.3 µM, first compound 0.01 µM
[27] = second compound 0.949 µM, first compound 0.00316 µM
[28] = second compound 0.949 µM, first compound 0.01 µM
[29] = second compound 3 µM, first compound 0.00316 µM
[30] = second compound 3 µM, first compound 0.01 µM
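Further: spheroids exposed to compound for seven days.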
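Wherever viability, T/C is given: 100% = DMSO vehicle control wells.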

IC50 (second compound 0.03 µM): > 10000 nM
IC50 (second compound 0.0949 µM): > 10000 nM
IC50 (second compound 0.3 µM): > 10000 nM
IC50 (second compound 0.949 µM): > 10000 nM
IC50 (second compound 3 µM): > 10000 nM
Structure (SMILES): C#Cc1c(F)ccc2cc(O)cc(-c3ncc4c(N5CC6CCC(C5)N6)nc(OCC56CCCN5CC(F)C6)nc4c3F)c12 (stereo not given) + CCN1C(C(=O)NC23CCC(C(=O)O)(CC2)CC3)C(c2cccc(Cl)c2F)C2(C(=O)Nc3cc(Cl)ccc32)C12CCCCC2
viability, T/C [1]: 96.1%
viability, T/C [2]: 102%
viability, T/C [3]: 100%
viability, T/C [4]: 96.2%
viability, T/C (second compound 0.03 µM, first compound 3.16 µM): 95.5%
viability, T/C (second compound 0.03 µM, first compound 10 µM): 79.4%
viability, T/C [5]: 101%
viability, T/C [6]: 95.3%
viability, T/C [7]: 96.2%
viability, T/C [8]: 84.8%
viability, T/C (second compound 0.0949 µM, first compound 3.16 µM): 87.3%
viability, T/C (second compound 0.0949 µM, first compound 10 µM): 69.9%
viability, T/C [9]: 99%
viability, T/C [10]: 104%
viability, T/C [11]: 97.7%
viability, T/C [12]: 101%
viability, T/C (second compound 0.3 µM, first compound 3.16 µM): 99.2%
viability, T/C (second compound 0.3 µM, first compound 10 µM): 88%
viability, T/C [13]: 92%
viability, T/C [14]: 103%
viability, T/C [15]: 94.9%
viability, T/C [16]: 88.7%
viability, T/C (second compound 0.949 µM, first compound 3.16 µM): 97.3%
viability, T/C (second compound 0.949 µM, first compound 10 µM): 93%
viability, T/C [17]: 103%
viability, T/C [18]: 94%
viability, T/C [19]: 86.1%
viability, T/C [20]: 98.6%
viability, T/C (second compound 3 µM, first compound 3.16 µM): 86.2%
viability, T/C (second compound 3 µM, first compound 10 µM): 78.5%

IC50 (second compound 0.03 µM): > 100 nM
IC50 (second compound 0.0949 µM): > 100 nM
IC50 (second compound 0.3 µM): > 100 nM
IC50 (second compound 0.949 µM): > 100 nM
IC50 (second compound 3 µM): > 100 nM
Structure (SMILES): Cn1ncnc1[C@H]1c2n[nH]c(=O)c3cc(F)cc(c23)N[C@@H]1c1ccc(F)cc1 + CCN1C(C(=O)NC23CCC(C(=O)O)(CC2)CC3)C(c2cccc(Cl)c2F)C2(C(=O)Nc3cc(Cl)ccc32)C12CCCCC2
viability, T/C (second compound 0.03 µM, first compound 0.000316 µM): 88.6%
viability, T/C (second compound 0.03 µM, first compound 0.001 µM): 108%
viability, T/C [21]: 88%
viability, T/C [22]: 96.5%
viability, T/C [1]: 83.9%
viability, T/C [2]: 75.4%
viability, T/C (second compound 0.0949 µM, first compound 0.000316 µM): 101%
viability, T/C (second compound 0.0949 µM, first compound 0.001 µM): 102%
viability, T/C [23]: 88.4%
viability, T/C [24]: 78.2%
viability, T/C [5]: 84.7%
viability, T/C [6]: 68%
viability, T/C (second compound 0.3 µM, first compound 0.000316 µM): 97%
viability, T/C (second compound 0.3 µM, first compound 0.001 µM): 111%
viability, T/C [25]: 104%
viability, T/C [26]: 81.7%
viability, T/C [9]: 80.7%
viability, T/C [10]: 75.2%
viability, T/C (second compound 0.949 µM, first compound 0.000316 µM): 95.3%
viability, T/C (second compound 0.949 µM, first compound 0.001 µM): 90.9%
viability, T/C [27]: 95.6%
viability, T/C [28]: 86%
viability, T/C [13]: 95.8%
viability, T/C [14]: 90.5%
viability, T/C (second compound 3 µM, first compound 0.000316 µM): 96.3%
viability, T/C (second compound 3 µM, first compound 0.001 µM): 103%
viability, T/C [29]: 89.9%
viability, T/C [30]: 84.8%
viability, T/C [17]: 82%
viability, T/C [18]: 81.6%

IC50 (second compound 0.1 µM): 644 nM
IC50 (second compound 0.316 µM): 502 nM
IC50 (second compound 1 µM): 494 nM
IC50 (second compound 3.16 µM): 420 nM
IC50 (second compound 10 µM): 321 nM
Structure (SMILES): O=C(c1ccc(F)c(F)c1Nc1ccc(I)cc1F)N1CC(O)([C@@H]2CCCCN2)C1 + Cc1c(S(C)(=O)=O)c(-c2cc(F)cc(N3CCN(c4ccc(NS(=O)(=O)c5ccc(NC(CCN6CCC(C(=O)OCCCP(=O)(O)O)CC6)CSc6ccccc6)c(S(=O)(=O)C(F)(F)F)c5)cc4)CC3)c2)c(-c2ccc(Cl)cc2)n1C(C)C
viability, T/C (second compound 0.1 µM, first compound 0.00316 µM): 87.3%
viability, T/C (second compound 0.1 µM, first compound 0.01 µM): 106%
viability, T/C (second compound 0.1 µM, first compound 0.0316 µM): 106%
viability, T/C (second compound 0.1 µM, first compound 0.1 µM): 87.7%
viability, T/C (second compound 0.1 µM, first compound 0.316 µM): 70.7%
viability, T/C (second compound 0.1 µM, first compound 1 µM): 37.6%
viability, T/C (second compound 0.316 µM, first compound 0.00316 µM): 88.5%
viability, T/C (second compound 0.316 µM, first compound 0.01 µM): 87.7%
viability, T/C (second compound 0.316 µM, first compound 0.0316 µM): 84.7%
viability, T/C (second compound 0.316 µM, first compound 0.1 µM): 83.4%
viability, T/C (second compound 0.316 µM, first compound 0.316 µM): 60.9%
viability, T/C (second compound 0.316 µM, first compound 1 µM): 33.6%
viability, T/C (second compound 1 µM, first compound 0.00316 µM): 89.2%
viability, T/C (second compound 1 µM, first compound 0.01 µM): 93.7%
viability, T/C (second compound 1 µM, first compound 0.0316 µM): 83.9%
viability, T/C (second compound 1 µM, first compound 0.1 µM): 79.3%
viability, T/C (second compound 1 µM, first compound 0.316 µM): 65.5%
viability, T/C (second compound 1 µM, first compound 1 µM): 26.9%
viability, T/C (second compound 3.16 µM, first compound 0.00316 µM): 88.1%
viability, T/C (second compound 3.16 µM, first compound 0.01 µM): 92%
viability, T/C (second compound 3.16 µM, first compound 0.0316 µM): 75.5%
viability, T/C (second compound 3.16 µM, first compound 0.1 µM): 82.5%
viability, T/C (second compound 3.16 µM, first compound 0.316 µM): 55.8%
viability, T/C (second compound 3.16 µM, first compound 1 µM): 27.6%
viability, T/C (second compound 10 µM, first compound 0.00316 µM): 90.1%
viability, T/C (second compound 10 µM, first compound 0.01 µM): 98%
viability, T/C (second compound 10 µM, first compound 0.0316 µM): 80.2%
viability, T/C (second compound 10 µM, first compound 0.1 µM): 75.3%
viability, T/C (second compound 10 µM, first compound 0.316 µM): 49.6%
viability, T/C (second compound 10 µM, first compound 1 µM): 25.3%

IC50 (second compound 0.03 µM): 552 nM
IC50 (second compound 0.0949 µM): 622 nM
IC50 (second compound 0.3 µM): 570 nM
IC50 (second compound 0.949 µM): 638 nM
IC50 (second compound 3 µM): 641 nM
Structure (SMILES): O=C(c1ccc(F)c(F)c1Nc1ccc(I)cc1F)N1CC(O)([C@@H]2CCCCN2)C1 + CCN1C(C(=O)NC23CCC(C(=O)O)(CC2)CC3)C(c2cccc(Cl)c2F)C2(C(=O)Nc3cc(Cl)ccc32)C12CCCCC2
viability, T/C [21]: 100%
viability, T/C [22]: 108%
viability, T/C [1]: 97.2%
viability, T/C [2]: 96.2%
viability, T/C [3]: 65.6%
viability, T/C [4]: 33.2%
viability, T/C [23]: 105%
viability, T/C [24]: 109%
viability, T/C [5]: 107%
viability, T/C [6]: 97.8%
viability, T/C [7]: 68.9%
viability, T/C [8]: 36.8%
viability, T/C [25]: 107%
viability, T/C [26]: 106%
viability, T/C [9]: 112%
viability, T/C [10]: 82.9%
viability, T/C [11]: 68.8%
viability, T/C [12]: 34.3%
viability, T/C [27]: 102%
viability, T/C [28]: 110%
viability, T/C [13]: 106%
viability, T/C [14]: 86.2%
viability, T/C [15]: 63.5%
viability, T/C [16]: 41.8%
viability, T/C [29]: 99.5%
viability, T/C [30]: 99.7%
viability, T/C [17]: 100%
viability, T/C [18]: 87.2%
viability, T/C [19]: 69.2%
viability, T/C [20]: 38.2%
